Laboratory results from ChEMBL document CHEMBL3817791, “Discovery of 4-(4-aminopyrazolo[1,5-a][1,3,5]triazin-8-yl)benzamides as novel, highly potent and selective, orally bioavailable inhibitors of Tyrosine Threonine Kinase, TTK” (Bioorg Med Chem Lett, 2016).
pIC50, pKi: −log10 of the molar value.

Key:
[1] = AUC (0 to last) in CD-1 nude mouse at 70 mg/ml, po; format: ADME, organism-based; design: dose 70 mg/ml, time 0 - last, route oral; details: in vivo
[2] = Cmax in Sprague-Dawley rat at 1 mg/ml, iv; format: ADME, organism-based; design: dose 1 mg/ml, route intravenous; details: in vivo
[3] = target: Aurora kinase B/Inner centromere protein (Homo sapiens, UniProt Q96GD4); experiment: Inhibition of recombinant human His-tagged Aurora B/full length recombinant human N-terminal GST-tagged INCENP (821-end residues) expressed in baculovirus infected Sf21 cells by radiometric assay
Chain of Aurora kinase B/Inner centromere protein (Q96GD4 whole entry): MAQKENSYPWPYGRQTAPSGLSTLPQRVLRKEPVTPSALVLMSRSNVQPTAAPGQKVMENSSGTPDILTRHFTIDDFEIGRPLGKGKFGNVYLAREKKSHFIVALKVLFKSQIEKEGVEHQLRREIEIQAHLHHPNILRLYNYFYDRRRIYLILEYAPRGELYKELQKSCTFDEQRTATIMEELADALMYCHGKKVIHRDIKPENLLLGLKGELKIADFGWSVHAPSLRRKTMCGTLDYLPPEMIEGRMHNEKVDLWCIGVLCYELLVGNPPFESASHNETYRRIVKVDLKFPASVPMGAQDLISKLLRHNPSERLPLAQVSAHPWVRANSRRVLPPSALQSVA
Chain of Aurora kinase B/Inner centromere protein (Q9NQS7 whole entry, further chain): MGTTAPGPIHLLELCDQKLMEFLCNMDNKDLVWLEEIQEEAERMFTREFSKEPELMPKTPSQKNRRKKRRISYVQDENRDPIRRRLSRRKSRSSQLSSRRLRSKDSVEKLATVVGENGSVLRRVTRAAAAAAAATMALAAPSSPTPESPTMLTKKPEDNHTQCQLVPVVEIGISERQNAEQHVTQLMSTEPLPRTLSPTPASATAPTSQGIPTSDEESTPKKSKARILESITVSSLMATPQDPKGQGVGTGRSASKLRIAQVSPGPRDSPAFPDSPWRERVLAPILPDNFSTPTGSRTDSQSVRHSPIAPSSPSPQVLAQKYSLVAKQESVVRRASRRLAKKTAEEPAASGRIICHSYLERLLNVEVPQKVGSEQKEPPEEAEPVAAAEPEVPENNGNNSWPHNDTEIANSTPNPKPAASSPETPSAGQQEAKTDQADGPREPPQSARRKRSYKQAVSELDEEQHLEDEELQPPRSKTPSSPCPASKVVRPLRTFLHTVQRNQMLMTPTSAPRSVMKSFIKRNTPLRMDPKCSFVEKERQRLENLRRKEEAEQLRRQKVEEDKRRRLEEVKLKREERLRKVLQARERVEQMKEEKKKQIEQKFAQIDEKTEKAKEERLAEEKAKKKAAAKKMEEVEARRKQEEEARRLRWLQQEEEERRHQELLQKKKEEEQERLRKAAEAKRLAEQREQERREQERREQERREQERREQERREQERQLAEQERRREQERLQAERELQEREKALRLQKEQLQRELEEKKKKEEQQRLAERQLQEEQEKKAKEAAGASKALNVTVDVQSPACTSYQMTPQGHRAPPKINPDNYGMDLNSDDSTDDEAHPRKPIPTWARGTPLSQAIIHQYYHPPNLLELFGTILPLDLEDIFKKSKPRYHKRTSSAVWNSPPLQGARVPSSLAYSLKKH

[4] = Volume of distribution at steady state in Sprague-Dawley rat at 1 mg/ml, iv; format: ADME, organism-based; details: in vivo, read-out: Vdss
[5] = AUC (0 to infinity) in Sprague-Dawley rat at 1 mg/ml, iv; format: ADME, organism-based; design: dose 1 mg/ml, time infinity, route intravenous; details: in vivo
[6] = Cmax in CD-1 nude mouse at 25 mg/ml, po; format: ADME, organism-based; design: dose 25 mg/ml, route oral; details: in vivo
[7] = Cmax in Sprague-Dawley rat at 5 mg/ml, iv; format: ADME, organism-based; design: dose 5 mg/ml, route intravenous; details: in vivo
[8] = target: MAP kinase-activated protein kinase 2 (Homo sapiens) (UniProt P49137); experiment: Inhibition of recombinant human N-terminal GST-tagged MAPKAPK2 (46 to 400 residues) expressed in Escherichia coli at 1 uM by radiometric assay relative to control
Chain of MAP kinase-activated protein kinase 2 (Homo sapiens) (P49137 whole entry, looked up, the tested form may be a part): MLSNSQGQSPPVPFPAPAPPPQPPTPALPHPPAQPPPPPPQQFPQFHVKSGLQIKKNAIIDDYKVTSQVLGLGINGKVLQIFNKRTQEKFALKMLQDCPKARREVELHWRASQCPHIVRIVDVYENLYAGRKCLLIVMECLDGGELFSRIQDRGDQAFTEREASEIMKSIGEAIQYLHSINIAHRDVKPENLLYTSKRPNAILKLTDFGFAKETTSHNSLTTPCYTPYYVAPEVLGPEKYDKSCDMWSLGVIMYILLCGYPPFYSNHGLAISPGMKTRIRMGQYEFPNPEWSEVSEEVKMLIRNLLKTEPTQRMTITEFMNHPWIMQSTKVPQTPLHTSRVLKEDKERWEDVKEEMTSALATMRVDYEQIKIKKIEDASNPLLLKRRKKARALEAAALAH

[9] = Cmax in CD-1 nude mouse at 55 mg/ml, po; format: ADME, organism-based; design: dose 55 mg/ml, route oral; details: in vivo
[10] = Protein binding in human plasma; format: ADME, cell-free; details: read-out: PPB (converted)
[11] = Cmax in CD-1 nude mouse at 100 mg/ml, po; format: ADME, organism-based; design: dose 100 mg/ml, route oral; details: in vivo
[12] = Cmax in CD-1 nude mouse at 70 mg/ml, po; format: ADME, organism-based; design: dose 70 mg/ml, route oral; details: in vivo
[13] = tested on: MDA-MB-231; experiment: Antiproliferative activity against human MDA-MB-231 cells; format: functional
[14] = Half life in human microsomes; format: ADME, Microsome
[15] = tested on: HT-29; experiment: Antiproliferative activity against human HT-29 cells; format: functional
[16] = Oral bioavailability in Sprague-Dawley rat; format: ADME, organism-based; details: in vivo
[17] = tested on: MDA-MB-468; experiment: Antiproliferative activity against human MDA-MB-468 cells; format: functional
[18] = target: T1, Serine/threonine-protein kinase PLK4 (Homo sapiens, UniProt O00444); experiment: Inhibition of human PLK4 by radiometric assay
T1 sequence (O00444 whole entry): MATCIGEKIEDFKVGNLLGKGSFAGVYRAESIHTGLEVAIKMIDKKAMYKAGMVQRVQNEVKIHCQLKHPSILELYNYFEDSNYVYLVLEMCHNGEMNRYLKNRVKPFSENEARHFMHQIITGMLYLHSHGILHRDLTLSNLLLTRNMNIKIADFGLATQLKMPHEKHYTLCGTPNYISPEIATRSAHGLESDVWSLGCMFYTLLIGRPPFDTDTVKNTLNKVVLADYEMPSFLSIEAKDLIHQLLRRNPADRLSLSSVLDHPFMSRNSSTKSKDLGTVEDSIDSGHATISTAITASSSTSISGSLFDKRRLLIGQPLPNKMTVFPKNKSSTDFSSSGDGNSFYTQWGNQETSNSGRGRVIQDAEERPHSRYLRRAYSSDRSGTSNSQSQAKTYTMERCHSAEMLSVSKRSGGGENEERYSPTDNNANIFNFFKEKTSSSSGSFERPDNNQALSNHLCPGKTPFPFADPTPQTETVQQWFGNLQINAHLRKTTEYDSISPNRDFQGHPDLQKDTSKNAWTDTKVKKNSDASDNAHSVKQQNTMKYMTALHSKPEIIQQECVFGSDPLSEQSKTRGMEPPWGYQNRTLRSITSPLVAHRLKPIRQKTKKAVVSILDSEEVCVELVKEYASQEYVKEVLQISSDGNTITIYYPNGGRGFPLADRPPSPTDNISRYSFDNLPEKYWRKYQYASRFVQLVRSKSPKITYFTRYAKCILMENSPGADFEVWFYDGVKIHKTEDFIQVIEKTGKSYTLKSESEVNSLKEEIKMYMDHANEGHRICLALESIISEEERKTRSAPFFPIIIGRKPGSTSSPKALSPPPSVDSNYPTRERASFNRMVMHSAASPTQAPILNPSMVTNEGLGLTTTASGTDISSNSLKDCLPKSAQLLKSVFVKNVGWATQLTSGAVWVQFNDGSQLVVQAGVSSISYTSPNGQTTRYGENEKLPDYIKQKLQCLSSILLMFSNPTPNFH

[19] = Half life in Sprague-Dawley rat at 1 mg/ml, iv; format: ADME, organism-based; details: in vivo
[20] = AUC (0 to last) in CD-1 nude mouse at 55 mg/ml, po; format: ADME, organism-based; design: dose 55 mg/ml, route oral, time 0 - last; details: in vivo
[21] = target: T2, Dual specificity protein kinase TTK (Homo sapiens, UniProt P33981); experiment: Competitive inhibition of TTK (unknown origin) by double reciprocal plot analysis in presence of ATP
T2 sequence (P33981 whole entry): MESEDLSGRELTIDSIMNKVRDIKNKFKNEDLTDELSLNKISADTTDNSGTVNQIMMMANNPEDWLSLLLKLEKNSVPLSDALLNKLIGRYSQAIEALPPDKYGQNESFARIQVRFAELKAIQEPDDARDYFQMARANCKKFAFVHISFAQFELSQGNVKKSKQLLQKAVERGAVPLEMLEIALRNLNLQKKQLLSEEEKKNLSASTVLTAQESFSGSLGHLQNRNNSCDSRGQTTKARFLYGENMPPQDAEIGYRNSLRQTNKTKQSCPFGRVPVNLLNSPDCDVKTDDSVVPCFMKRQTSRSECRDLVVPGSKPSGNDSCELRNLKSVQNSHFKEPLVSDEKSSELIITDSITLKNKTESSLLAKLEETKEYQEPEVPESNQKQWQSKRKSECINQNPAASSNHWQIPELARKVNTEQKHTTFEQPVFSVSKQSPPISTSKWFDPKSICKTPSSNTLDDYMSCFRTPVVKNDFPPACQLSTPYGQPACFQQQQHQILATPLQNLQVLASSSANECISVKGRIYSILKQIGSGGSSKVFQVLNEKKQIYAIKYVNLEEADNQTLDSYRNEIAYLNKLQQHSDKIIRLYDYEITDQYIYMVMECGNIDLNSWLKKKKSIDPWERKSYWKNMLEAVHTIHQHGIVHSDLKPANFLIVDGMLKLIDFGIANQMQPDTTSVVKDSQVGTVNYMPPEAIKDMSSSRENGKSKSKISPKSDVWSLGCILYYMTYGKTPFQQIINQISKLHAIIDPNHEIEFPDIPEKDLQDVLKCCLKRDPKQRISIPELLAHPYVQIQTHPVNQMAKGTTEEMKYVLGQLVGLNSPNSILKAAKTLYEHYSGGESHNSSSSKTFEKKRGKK

[22] = Cmax in CD-1 nude mouse at 10 mg/ml, po; format: ADME, organism-based; design: dose 10 mg/ml, route oral; details: in vivo
[23] = target: Rho-associated protein kinase 2 (Homo sapiens) (UniProt O75116); experiment: Inhibition of recombinant human N-terminal His6-tagged ROCK2 (11 to 552 residues) expressed in baculovirus infected Sf21 cells at 1 uM by radiometric assay relative to control
Chain of Rho-associated protein kinase 2 (Homo sapiens) (O75116 whole entry, looked up, the tested form may be a part): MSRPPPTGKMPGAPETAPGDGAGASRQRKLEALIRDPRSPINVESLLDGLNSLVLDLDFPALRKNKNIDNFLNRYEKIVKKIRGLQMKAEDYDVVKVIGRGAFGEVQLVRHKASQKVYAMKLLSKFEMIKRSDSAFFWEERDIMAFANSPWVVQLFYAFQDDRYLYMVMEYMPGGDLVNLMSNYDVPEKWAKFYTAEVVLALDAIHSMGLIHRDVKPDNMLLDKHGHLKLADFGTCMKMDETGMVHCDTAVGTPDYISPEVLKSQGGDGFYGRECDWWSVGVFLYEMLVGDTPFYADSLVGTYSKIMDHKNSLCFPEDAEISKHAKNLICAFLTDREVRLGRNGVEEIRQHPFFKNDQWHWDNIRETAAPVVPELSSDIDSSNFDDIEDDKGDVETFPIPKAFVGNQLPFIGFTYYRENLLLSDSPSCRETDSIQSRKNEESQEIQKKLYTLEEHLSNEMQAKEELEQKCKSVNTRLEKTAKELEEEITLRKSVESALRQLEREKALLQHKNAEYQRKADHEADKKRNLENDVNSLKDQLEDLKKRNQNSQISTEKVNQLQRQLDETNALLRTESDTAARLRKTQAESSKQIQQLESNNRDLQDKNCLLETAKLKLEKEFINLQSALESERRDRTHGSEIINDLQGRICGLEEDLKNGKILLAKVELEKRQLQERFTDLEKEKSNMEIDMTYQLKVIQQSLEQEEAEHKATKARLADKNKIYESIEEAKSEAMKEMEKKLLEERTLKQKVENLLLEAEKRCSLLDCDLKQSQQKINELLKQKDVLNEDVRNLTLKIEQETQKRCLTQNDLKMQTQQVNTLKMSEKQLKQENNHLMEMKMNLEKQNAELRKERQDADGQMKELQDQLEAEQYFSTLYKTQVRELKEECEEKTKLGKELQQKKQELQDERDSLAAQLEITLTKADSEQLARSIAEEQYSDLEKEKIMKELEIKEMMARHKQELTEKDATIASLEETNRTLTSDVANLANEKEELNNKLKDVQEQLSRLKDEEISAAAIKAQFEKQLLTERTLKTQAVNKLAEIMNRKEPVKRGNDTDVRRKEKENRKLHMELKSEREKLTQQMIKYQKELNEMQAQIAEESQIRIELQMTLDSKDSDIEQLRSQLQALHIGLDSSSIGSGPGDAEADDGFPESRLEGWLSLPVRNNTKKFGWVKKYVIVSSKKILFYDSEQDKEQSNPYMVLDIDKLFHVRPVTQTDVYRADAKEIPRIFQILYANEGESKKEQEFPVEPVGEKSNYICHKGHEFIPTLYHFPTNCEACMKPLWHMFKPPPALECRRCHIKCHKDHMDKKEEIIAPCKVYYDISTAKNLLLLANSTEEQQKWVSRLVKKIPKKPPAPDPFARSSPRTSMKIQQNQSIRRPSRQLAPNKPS

[24] = Half life in rat microsomes; format: ADME, Microsome
[25] = target: Cytochrome P450 3A4 (Homo sapiens, UniProt P08684); experiment: Inhibition of CYP3A4 (unknown origin); format: ADME
Chain of Cytochrome P450 3A4 (P08684 whole entry): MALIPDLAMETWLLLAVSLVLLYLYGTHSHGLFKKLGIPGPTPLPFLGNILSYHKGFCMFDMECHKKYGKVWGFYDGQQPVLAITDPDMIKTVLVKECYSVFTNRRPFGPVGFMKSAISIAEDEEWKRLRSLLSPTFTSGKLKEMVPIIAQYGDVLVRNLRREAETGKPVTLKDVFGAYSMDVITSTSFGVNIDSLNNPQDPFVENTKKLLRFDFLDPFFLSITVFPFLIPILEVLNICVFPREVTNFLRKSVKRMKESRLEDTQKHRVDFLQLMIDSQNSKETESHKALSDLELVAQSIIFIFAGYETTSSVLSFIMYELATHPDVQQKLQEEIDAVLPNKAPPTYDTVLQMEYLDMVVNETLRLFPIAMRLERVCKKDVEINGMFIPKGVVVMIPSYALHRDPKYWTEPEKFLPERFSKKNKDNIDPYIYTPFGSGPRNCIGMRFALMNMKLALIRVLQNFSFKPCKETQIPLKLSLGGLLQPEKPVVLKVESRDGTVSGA

[26] = Clearance in Sprague-Dawley rat at 1 mg/ml, iv; format: ADME, organism-based; details: in vivo
[27] = Protein binding in mouse plasma; format: ADME, cell-free; details: read-out: PPB (converted)

SMILES: Cc1cc(-c2cnn3c(NCC4CCOCC4)nc(Oc4ccccc4)nc23)ccc1C(=O)NC1CC1
- AUC(0-t) [1]: 53000 ng·h/mL
- Cmax [2]: 411 ng/mL
- pIC50 [3]: < 4.30
- Vd [4]: 2.8 L
- AUC(0-inf) [5]: 871 ng·h/mL
- Cmax [6]: 3200 ng/mL
- Cmax [7]: 841 ng/mL
- inhibition [8]: -8%
- Cmax [9]: 7600 ng/mL
- fraction unbound [10]: 0.028
- Cmax [11]: 2900 ng/mL
- Cmax [12]: 7700 ng/mL
- GI50 [13]: 0.032 µM
- half-life [14]: > 1 h
- GI50 [15]: 0.015 µM
- bioavailability [16]: 97%
- GI50 [17]: 0.16 µM
- pIC50 [18]: < 4.30
- half-life [19]: 1.53 h
- AUC(0-t) [20]: 38100 ng·h/mL
- pKi [21]: 9.11
- Cmax [22]: 890 ng/mL
- inhibition [23]: 0%
- half-life [24]: > 1 h
- pIC50 [25]: 6.10
- clearance [26]: 19 mL/min/kg
- fraction unbound [27]: 0.016
